Here are results for 2 compounds from patent US10034895B2 (priority 2017, dated 2018).

SMILES strings stand for the structures. Some results are limits rather than exact numbers.

Data set [1] relates to HeLa cells (ATCC CCL-2). The experiment in a line: Trypan blue viability study of cultured HeLa cells. As for the experimental part: (§1) Cells for culture were obtained from the Cell Culture Facility at Duke University. PLLA was microwave synthesized from L-lactic acid as previously reported. Lactic acid concentration was measured by tetrazolium indicator color test strips (Accuvin, LLC, Napa, Calif.) from the reaction of L-lactic acid and […] in the presence of lactate dehydrogenase. All cells were cultured at 37° C. and 5% CO2 in a HERA cell incubator (Kendro Laboratory Products, L.P., Newtown, Conn.). Media for cells was Minimum Essential Media with Earl's salts and L-Glutamine (Gibco, Life Technologies) with 10% fetal bovine serum and non-essential amino acids and sodium pyruvate. Antibiotics for experiment #2 were penicillin/streptomycin and for experiments #3-4 were penicillin/streptomycin/amphotericin B. All drug testing was performed in Costar 6 Well Culture Cluster plates (Corning, Corning, N.Y.). The trypan blue concentration was 0.4%.
HeLa cells (ATCC CCL-2) were cultured on six well plates. […] The cells were incubated for 12 hours, after which time they were stained with 1 ml trypan blue for two minutes. The media and trypan blue were aspirated from each well, and the cells were then placed under an inverted microscope for photography.

Data set [2] deals with Human retinoblastoma cells. Nature of the data set: Trypan blue viability study of human retinoblastoma cells (dose response). The note with it: 12 hours.
Protocol: (§2) Cells for culture were obtained from the Cell Culture Facility at Duke University. […] All cells were cultured at 37° C. and 5% CO2 in a HERA cell incubator (Kendro Laboratory Products, L.P., Newtown, Conn.). Media for cells was Minimum Essential Media with Earl's salts and L-Glutamine (Gibco, Life Technologies) with 10% fetal bovine serum and non-essential amino acids and sodium pyruvate. Antibiotics for experiment #2 were penicillin/streptomycin and for experiments #3-4 were penicillin/streptomycin/amphotericin B. All drug testing was performed in Costar 6 Well Culture Cluster plates (Corning, Corning, N.Y.). The trypan blue concentration was 0.4%.
(§3) Human retinoblastoma cells (ATCC C-33A) were cultured in six well plates. […] The cells were incubated for 12 hours after which time they were stained with 1 ml trypan blue for two minutes. The media and trypan blue were aspirated from each well, and the cells were examined with an inverted microscope for photography.
The test system of data set [3] is Human retinoblastoma cells (ATCC C-33A). Described as above. The note with it: conclusion of Experiment 3.
Protocol: as §2, §3
Data set [4] in a line: Stereocomplex reaction of L-lactic acid + D-lactic acid dimer (tetrazolium L-lactic acid test strips). The note with it: room temperature, two minutes. As for the experimental part:
as §1
The reactions were carried out at room temperature and allowed to incubate for two minutes after which 20 microliters were applied to L-lactic acid test strips, and the results were read after two minutes.

Data set [5] deals with Normal human fibroblast cells (ATCC CCL-171). The experiment in a line: Trypan blue viability study of normal human fibroblast cells. The note with it: for cytotoxicity of D-lactic acid dimer compared with L-lactic acid: cultured normal fibroblasts, FIGS. 13-16; for Cell characteristic: cells non-viable (trypan blue): normal fibroblasts, 12 hours. As for the experimental part: as §1
Normal human fibroblast cells (ATCC CCL-171) were subcultured onto six well plates. […] The cells were incubated for 12 hours after which time they were stained with 1 ml trypan blue for two minutes. The media and trypan blue were aspirated from each well, and the cells were then placed under an inverted microscope for photography.

As to `C[C@@H](O)C(=O)O[C@H](C)C(=O)O` [D-lactic acid dimer], the “concentration at which cytotoxic when applied to HeLa cells” value in data set [1] (HeLa, conclusion of Experiment 2) is ≥ 5000 µg/mL. The “cytotoxicity compared to PLLA” value in data set [1] (cultured HeLa cells, FIGS. 2 & 3) is listed as “more cytotoxic than a mixture of PLLA oligomers”. The “concentration at which selectively cytotoxic when locally applied to cancer cells” value in data set [1] (summary over cancer cells (HeLa and retinoblastoma)) lay within 5000 to 6250 µg/mL. The “Trypan blue staining for non-viable cells” value is listed as “Thirty” in data set [2] (6.25 mg in 1 ml media) and “Fifty” in data set [2] (25 mg in 1 ml media). Further, the “effective cytotoxic dose / concentration on human retinoblastoma cells” value in data set [3] was “greater than 6.25 mg/ml”. The “Tetrazolium indicator (L-lactic acid remaining)” value in data set [4] (0.5 mg dimer in 40 microliters of 10 mM L-lactic acid) is 80 mg/L; in data set [4] (1.0 mg dimer in 40 microliters of 10 mM L-lactic acid), “no color change”; in data set [4] (5.0 mg dimer in 40 microliters of 10 mM L-lactic acid), “no color change”; in data set [4] (7.0 mg dimer in 40 microliters of 10 mM L-lactic acid), “no color change”. For the same compound, the “cytotoxicity of D-lactic acid dimer compared with L-lactic acid” value in data set [5] was “less cytotoxic on a molar basis than L-lactic acid”. In addition, the “Cell characteristic: cells non-viable (trypan blue)” value in data set [5] (1.50 mg in 1 ml media) is 0% cells non-viable; in data set [5] (12.5 mg in 1 ml media), 100% cells non-viable; in data set [5] (25 mg in 1 ml media), 100% cells non-viable.
Regarding `C[C@H](O)C(=O)O` [L-lactic acid, reference compound], the “cytotoxicity of D-lactic acid dimer compared with L-lactic acid” value in data set [5] is “more cytotoxic than D-lactic acid dimer”.
